Data from patent publication US11524966B1 (Valo Early Discovery, Inc., priority 2017, dated 2022).

Target: T1, USP25 (USP25-His6, Boston Biochem E-546) (Homo sapiens, UniProt Q9UHP3)
T1 construct: His6; purchased Boston Biochem E-546
T1 sequence (Q9UHP3 1-1055): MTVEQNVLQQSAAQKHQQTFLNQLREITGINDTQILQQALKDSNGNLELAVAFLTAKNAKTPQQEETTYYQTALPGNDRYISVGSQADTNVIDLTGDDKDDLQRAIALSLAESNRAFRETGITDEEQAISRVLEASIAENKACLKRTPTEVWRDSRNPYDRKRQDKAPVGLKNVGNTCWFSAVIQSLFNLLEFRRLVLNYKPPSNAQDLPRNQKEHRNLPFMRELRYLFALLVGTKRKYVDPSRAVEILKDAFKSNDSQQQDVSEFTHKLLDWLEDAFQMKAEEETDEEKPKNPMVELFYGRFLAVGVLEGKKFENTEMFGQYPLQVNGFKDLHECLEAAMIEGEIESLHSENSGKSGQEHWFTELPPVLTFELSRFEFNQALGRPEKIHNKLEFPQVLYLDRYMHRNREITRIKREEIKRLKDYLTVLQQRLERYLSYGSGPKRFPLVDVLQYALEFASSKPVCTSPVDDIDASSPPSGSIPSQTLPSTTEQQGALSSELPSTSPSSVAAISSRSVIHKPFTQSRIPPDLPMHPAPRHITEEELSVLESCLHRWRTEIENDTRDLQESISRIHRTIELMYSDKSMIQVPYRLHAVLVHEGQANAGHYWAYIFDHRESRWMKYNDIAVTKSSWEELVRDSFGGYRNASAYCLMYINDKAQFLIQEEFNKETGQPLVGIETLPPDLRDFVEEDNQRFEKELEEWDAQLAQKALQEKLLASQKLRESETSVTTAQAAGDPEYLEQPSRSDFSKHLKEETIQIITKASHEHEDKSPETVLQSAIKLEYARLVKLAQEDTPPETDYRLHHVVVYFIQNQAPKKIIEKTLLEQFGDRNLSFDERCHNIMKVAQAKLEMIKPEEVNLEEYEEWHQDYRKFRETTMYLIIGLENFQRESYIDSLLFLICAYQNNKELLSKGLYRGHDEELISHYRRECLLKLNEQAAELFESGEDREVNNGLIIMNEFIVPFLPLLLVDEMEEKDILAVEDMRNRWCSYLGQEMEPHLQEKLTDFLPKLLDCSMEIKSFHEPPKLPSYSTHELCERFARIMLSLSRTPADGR
Experiment: Ubiquitin-Rhodamine 110 Assay for USP25 Activity, Example A-2
Format: biochemical
Conditions: Ubiquitin-Rhodamine 110 assay, Example A-2; read-out: USP25 A-2 IC50 range
Method in brief: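 Cleavage of ubiquitin-rhodamine 110 (25 nM, well below Km) by His-tagged USP25 at 75 pM is measured fluorimetrically after 45 min at room temperature and acid quench. Inhibitors are preincubated with enzyme for 30 minutes. IC50 values come from four-parameter logistic curve fitting.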

SMILES | IC50
Cc1ccc2c(N)c(C(=O)N[C@H]3COc4cc(O[C@H]5COC6(CNC6)C5)ccc4C3)sc2n1 (single isomer, unassigned) [Example 9-2] | 50 to 200 nM
COc1ccc2c(N)c(C(=O)N[C@H]3COc4cc(N5CCNCC5)cc(F)c4C3)sc2n1 [Example 10-11, (R)-3-amino-N-(5-fluoro-7-(piperazin-1-yl)chroman-3-yl)-6-methoxythieno[2,3-b]pyridine-2-carboxamide] | 50 to 200 nM
Cc1ccc2c(N)c(C(=O)N[C@H]3COc4cc(O[C@@H]5COC6(CNC6)C5)ccc4C3)sc2n1 (single isomer, unassigned) [Example 9-1] | 50 to 200 nM
CCn1ccc2cc(C(=O)N[C@H]3CCc4cc(N5CC6CCC(C5)N6)ccc4C3)nnc21 (single isomer, unassigned) [Example 11-24] | > 2000 nM
Cc1cnc2c(N)c(C(=O)N[C@@H]3CCc4cc(N5CCNC[C@@H](O)C5)ccc4C3)sc2n1 (single isomer, unassigned) [Example 7-5] | 200 to 2000 nM
CO[C@@H]1CN(c2cc(F)c3c(c2)OC[C@H](NC(=O)c2sc4nc(C)ccc4c2N)C3)C[C@H]1N [Example 10-2, 3-amino-N-((R)-7-((3R,4R)-3-amino-4-methoxypyrrolidin-1-yl)-5-fluorochroman-3-yl)-6-methylthieno[2,3-b]pyridine-2-carboxamide] | 200 to 2000 nM
[2H]C1([2H])NC([2H])([2H])C([2H])([2H])N(c2cc(F)c3c(c2)OC[C@H](NC(=O)c2sc4nc(C)ccc4c2N)C3)C1([2H])[2H] [Example 10-4, (R)-3-amino-N-(5-fluoro-7-(piperazin-l-yl-2,2,3,3,5,5,6,6-d8)chroman-3-yl)-6-methylthieno[2,3-b]pyridine-2-carboxamide] | 50 to 200 nM
Cc1ccc2c(N)c(C(=O)N(C)[C@H]3COc4cc(N5CCNCC5)cc(F)c4C3)sc2n1 [Example 10-15, 3-amino-N-[(3R)-5-fluoro-7-(piperazin-1-yl)-3,4-dihydro-2H-1-benzopyran-3-yl)-N,6-dimethylthieno[2,3-b]pyridine-2-carboxamide] | > 2000 nM
Cc1ccc2c(N)c(C(=O)N[C@@H]3CCc4cc(N5CCN[C@H](CO)C5)ccc4C3)sc2n1 (single isomer, unassigned) [Example 7-10] | 200 to 2000 nM
Cc1cc(C(F)(F)F)c2c(N)c(C(=O)N[C@H]3COc4cc(N5CCNCC5)cc(F)c4C3)sc2n1 [Example 10-14, (R)-3-amino-N-(5-fluoro-7-(piperazin-1-yl)chroman-3-yl)-6-methyl-4-(trifluoromethyl)thieno[2,3-b]pyridine-2-carboxamide] | 50 to 200 nM
Cc1nc2sc(C(=O)N[C@H]3CCc4cc(N5CC6CCC(C5)N6)ccc4C3)c(N)c2cc1F (single isomer, unassigned) [Example 11-3] | 200 to 2000 nM
Cc1cnc2c(N)c(C(=O)N[C@H]3CCc4cc(N5CCNC[C@H](O)C5)ccc4C3)sc2n1 (single isomer, unassigned) [Example 7-6] | > 2000 nM
CCn1ccc2cc(C(=O)N[C@H]3CCc4cc(N5CC6CCC(C5)N6)ccc4C3)cnc21 (single isomer, unassigned) [Example 11-9] | > 2000 nM
Cc1cnc2c(N)c(C(=O)N[C@H]3COc4cc(N5CC6CNCC(C5)O6)cc(F)c4C3)sc2n1 [Example 10-12, N-((3R)-7-(9-oxa-3,7-diazabicyclo[3.3.1]nonan-3-yl)-5-fluorochroman-3-yl)-7-amino-3-methylthieno[2,3-b]pyrazine-6-carboxamide] | 1 to 50 nM
Cc1ccc2c(N)c(C(=O)N[C@H]3CCc4cc(N5CCN[C@H](CO)C5)ccc4C3)sc2n1 (single isomer, unassigned) [Example 7-8] | > 2000 nM
Cc1cnc2c(N)c(C(=O)N[C@@H]3CCc4cc(N5CC6CCC(C5)N6)cc(F)c4C3)sc2n1 (single isomer, unassigned) [Example 11-14] | 200 to 2000 nM
Cc1ccc2c(N)c(C(=O)N[C@@H]3COc4cc(N5CCNCC5)cc(F)c4C3)sc2n1 [Example 10-5, (S)-3-amino-N-(5-fluoro-7-(piperazin-1-yl)chroman-3-yl)-6-methylthieno[2,3-b]pyridine-2-carboxamide] | > 2000 nM
CO[C@H]1CN(c2cc(F)c3c(c2)OC[C@H](NC(=O)c2sc4nc(C)ccc4c2N)C3)C[C@@H]1N (single isomer, unassigned) [Example 10-3] | 200 to 2000 nM

Same assay, conditions: Ubiquitin-Rhodamine 110 assay, format Example A-2; read-out: USP25 A-2 IC50 range

SMILES | IC50
CO[C@H]1CN(c2ccc3c(n2)CC[C@H](NC(=O)c2sc4nc(C)cnc4c2N)C3)C[C@@H]1N (single isomer, unassigned) [Example 23-1] | > 2000 nM
Cc1ccc2c(N)c(C(=O)N[C@@H]3COc4cc(N5CCNCC5)c(Cl)cc4C3)sc2n1 (single isomer, unassigned) [Example 13-6] | 50 to 200 nM
Cc1ccc2c(N)c(C(=O)N[C@H]3CCc4cc(N5C6CNCC5C6)ccc4C3)sc2n1 (single isomer, unassigned) [Example 11-35] | 200 to 2000 nM
Cc1ccc2c(N)c(C(=O)N[C@@H]3COc4c(ccc(N5CCNCC5)c4Cl)C3)sc2n1 [Example 13-8, (S)-3-amino-N-(8-chloro-7-(piperazin-1-yl)chroman-3-yl)-6-methylthieno[2,3-b]pyridine-2-carboxamide] | > 2000 nM
Cc1ccc2c(N)c(C(=O)N[C@H]3COc4cc(N5CCNCC5)ncc4C3)sc2n1 [Example 16, (R)-3-Amino-6-methyl-N-(7-(piperazin-1-yl)-3,4-dihydro-2H-pyrano[3,2-c]pyridin-3-yl)thieno[2,3-b]pyridine-2-carboxamide] | 200 to 2000 nM
Cc1ccc2c(N)c(C(=O)N[C@@H]3CCc4cc(N5CCNCC5)cnc4C3)sc2n1 (single isomer, unassigned) [Example 15-1] | > 2000 nM
Cc1ccc2c(N)c(C(=O)N[C@@H]3CCc4c(ccc(N5CC6CCC(C5)N6)c4F)C3)sc2n1 (single isomer, unassigned) [Example 21-1] | > 2000 nM
Cc1ccc2c(N)c(C(=O)N[C@H]3COc4c(ccc(N5CCNCC5)c4Cl)C3)sc2n1 [Example 13_7, (R)-3-amino-N-(8-chloro-7-(piperazin-1-yl)chroman-3-yl)-6-methylthieno[2,3-b]pyridine-2-carboxamide] | 50 to 200 nM
Cc1ccc2c(N)c(C(=O)N[C@H]3COc4cc(N5CC6CCC(C5)N6)c(F)c(F)c4C3)sc2n1 [Example 13-3, N-((3R)-7-(3,8-diazabicyclo[3.2.1]octan-3-yl)-5,6-difluorochroman-3-yl)-3-amino-6-methylthieno[2,3-b]pyridine-2-carboxamide] | > 2000 nM
Cc1ccc2c(N)c(C(=O)N[C@@H]3CCc4c(ccc(N5CCNCC5)c4F)C3)sc2n1 (single isomer, unassigned) [Example 21-5] | 50 to 200 nM
CO[C@H]1CN(c2ccc3c(n2)CC[C@H](NC(=O)c2sc4nc(C)ccc4c2N)C3)C[C@@H]1N [Example 23-4, 3-amino-N-[(6S)-2-[(3S,4S)-3-amino-4-methoxypyrrolidin-1-yl]-5,6,7,8-tetrahydroquinolin-6-yl]-6-methylthieno[2,3-b]pyridine-2-carboxamide] | > 2000 nM
Cc1ccc2c(N)c(C(=O)N[C@@H]3CCc4c(F)c(N5CC6CCC(C5)N6)cc(F)c4C3)sc2n1 (single isomer, unassigned) [Example 22-6] | > 2000 nM
CO[C@H]1CN(c2ccc3c(n2)CC[C@@H](NC(=O)c2sc4nc(C)cnc4c2N)C3)C[C@@H]1N (single isomer, unassigned) [Example 23-2] | > 2000 nM
